# Data: ChEMBL document CHEMBL1201862, “PubChem BioAssay data set” (2004)
# Counter-ions that a name gives are not always drawn. Calls of active or inactive are those of the source.
# Tests used:
# [1] = target: T1, Cytochrome P450 1A2 (Homo sapiens, UniProt P05177);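 further: PubChem cytochrome P450 panel assay, CYP1A2 panel member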
# T1 sequence (P05177 whole entry): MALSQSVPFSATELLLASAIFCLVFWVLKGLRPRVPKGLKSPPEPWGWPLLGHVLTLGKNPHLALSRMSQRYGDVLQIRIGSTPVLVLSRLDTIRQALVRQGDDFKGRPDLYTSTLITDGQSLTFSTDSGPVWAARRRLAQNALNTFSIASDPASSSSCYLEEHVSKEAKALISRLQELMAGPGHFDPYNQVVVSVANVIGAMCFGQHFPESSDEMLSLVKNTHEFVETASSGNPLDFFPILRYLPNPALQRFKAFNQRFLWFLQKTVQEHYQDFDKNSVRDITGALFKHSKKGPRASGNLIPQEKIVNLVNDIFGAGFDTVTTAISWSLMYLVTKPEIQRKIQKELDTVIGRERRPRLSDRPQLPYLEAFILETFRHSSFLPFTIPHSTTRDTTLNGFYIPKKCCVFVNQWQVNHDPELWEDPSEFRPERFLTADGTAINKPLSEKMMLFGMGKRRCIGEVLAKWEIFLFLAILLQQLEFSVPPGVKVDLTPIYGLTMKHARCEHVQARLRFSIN
# [2] = target: Cytochrome P450 2C9 (Homo sapiens, UniProt P11712)
# [3] = M. tuberculosis H37Rv growth inhibitors, H37Rv strain (AID 1626); type: functional
# [4] = target: T2, Fatty acid synthase (Homo sapiens, UniProt P49327); test: FAS thioesterase domain inhibitors, dose response, biochemical, endpoint fluorescence intensity, uHTS hits (AID 624327); type: functional;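 further: fluorescence from hydrolysis of an O-methyl fluorescein acyl ester substrate by the enzyme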
# [5] = target: T2, Fatty acid synthase; test: FAS thioesterase domain inhibitors, dose response, biochemical, kinetic fluorescence intensity (AID 624326); type: functional;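 further: rate of fluorescence rise from hydrolysis of a fluorogenic O-methyl fluorescein ester substrate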
# [6] = target: T3, Calpain-2 catalytic subunit (Sus scrofa, UniProt P43367); test: pig calpain II inhibitor potency, dose response, biochemical, fluorogenic peptide substrate (AID 1420); type: functional
# T3 sequence (P43367 whole entry): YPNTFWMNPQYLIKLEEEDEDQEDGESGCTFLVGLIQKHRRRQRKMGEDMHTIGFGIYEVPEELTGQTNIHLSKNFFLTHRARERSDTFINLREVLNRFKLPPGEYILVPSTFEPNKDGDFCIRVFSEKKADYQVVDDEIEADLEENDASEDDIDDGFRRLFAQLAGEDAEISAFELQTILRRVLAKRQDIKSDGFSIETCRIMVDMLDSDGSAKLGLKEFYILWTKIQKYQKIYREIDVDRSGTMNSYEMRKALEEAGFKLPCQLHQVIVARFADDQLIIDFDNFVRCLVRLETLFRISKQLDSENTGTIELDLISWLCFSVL
# [7] = target: T4, Short transient receptor potential channel 4 (Mus musculus, UniProt Q9QUQ5); test: mouse TRPC4 channel inhibitors, dose response, cell-based, HEK293 TRPC4/mu-opioid, Fluo-4 calcium (AID 434942); type: functional;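 further: potency of inhibitors blocking the TRPC4 calcium response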
# T4 sequence (Q9QUQ5 whole entry): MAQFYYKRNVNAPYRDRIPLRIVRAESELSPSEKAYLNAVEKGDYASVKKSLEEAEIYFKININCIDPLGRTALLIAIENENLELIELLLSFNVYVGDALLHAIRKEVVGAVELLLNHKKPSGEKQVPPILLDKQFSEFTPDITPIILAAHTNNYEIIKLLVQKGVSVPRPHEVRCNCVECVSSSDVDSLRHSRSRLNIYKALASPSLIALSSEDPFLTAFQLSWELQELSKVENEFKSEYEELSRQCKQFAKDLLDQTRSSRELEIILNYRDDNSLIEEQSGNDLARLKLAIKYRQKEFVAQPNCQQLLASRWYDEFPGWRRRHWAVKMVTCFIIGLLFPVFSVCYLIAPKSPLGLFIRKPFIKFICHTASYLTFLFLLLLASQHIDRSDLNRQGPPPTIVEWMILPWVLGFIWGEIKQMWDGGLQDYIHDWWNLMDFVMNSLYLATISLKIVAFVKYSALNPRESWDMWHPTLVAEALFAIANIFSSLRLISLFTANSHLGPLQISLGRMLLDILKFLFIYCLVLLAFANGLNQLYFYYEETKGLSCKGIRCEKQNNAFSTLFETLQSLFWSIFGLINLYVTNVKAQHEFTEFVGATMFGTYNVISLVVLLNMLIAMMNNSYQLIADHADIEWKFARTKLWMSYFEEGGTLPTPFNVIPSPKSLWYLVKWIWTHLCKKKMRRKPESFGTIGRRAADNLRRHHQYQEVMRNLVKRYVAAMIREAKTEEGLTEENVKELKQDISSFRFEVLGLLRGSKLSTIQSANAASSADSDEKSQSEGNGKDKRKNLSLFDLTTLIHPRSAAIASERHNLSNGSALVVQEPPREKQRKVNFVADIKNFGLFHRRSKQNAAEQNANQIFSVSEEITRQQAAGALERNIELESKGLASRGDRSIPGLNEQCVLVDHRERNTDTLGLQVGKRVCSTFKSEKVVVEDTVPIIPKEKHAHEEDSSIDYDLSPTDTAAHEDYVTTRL
# [8] = system: Vero; test: cells; type: functional; details: Chlorocebus sabaeus
# [9] = inhibitors of SNCA 5'UTR-driven reporter translation, confirmation, H4 neuroglioma cells, luminescence (AID 1988); type: functional, cell-based
# [10] = Luminescence Cell-Based Dose Response HTS to Identify Inhibitors of 5'UTR Stem-Loop Driven Prion Protein mRNA Translation in H4 Neuroglioblastoma Cells. [Related pubchem assays: 1827 (Project Summary), 1813 (Primary HTS)]; type: functional
# [11] = inhibitors of firefly luciferase expression or activity, dose response, H4 neuroglioma cells, luminescence (AID 1990); type: functional, cell-based
# [12] = target: Cytochrome P450 3A4 (Homo sapiens, UniProt P08684);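 further: CYP3A4 tested as one member of a cytochrome P450 panel screen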
# [13] = target: Cytochrome P450 2C19 (Homo sapiens, UniProt P33261); test: Cytochrome panel assay with activity outcomes. Panel member name: p450-cyp2c19 Compounds with AC50 equal or less than 10 uM are considered active; type: functional; details: read-out: AC50
# [14] = inhibitors of clade B AD8 Env fusion, dose response, cell-based, cherry-pick (AID 652062); type: functional;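 further: luciferase signal from cell-cell fusion driven by HIV-1 clade B AD8 Env; potency is for inhibitors of fusion seen as a drop in luminescence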
# [15] = system: INS1; test: beta cell apoptosis inhibitors, cytokine rescue, dose response, luminescence, retest (AID 449756); type: functional, cell-based; details: Rattus norvegicus;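 further: cell death triggered by IL-1 beta plus TNF-alpha plus IFN-gamma mixture; protective hits raise ATP signal compared with cytokine alone wells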
# [16] = system: Escherichia coli; test: microbe, parasite or virus in culture
# [17] = cytotoxicity toward NIH3T3 fibroblasts, dose response, counter-screen, cell-based, ATP luminescence, mouse fibroblasts (AID 2010); type: functional;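 further: cells exposed to compound for about 90 hours before reading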
# [18] = target: DNA dC->dU-editing enzyme APOBEC-3A (Homo sapiens, UniProt P31941); test: Dose Response confirmation of small molecule APOBEC3A DNA Deaminase Inhibitors via a fluorescence-based single-stranded DNA deaminase assay. [Related pubchem assays (depositor defined):AID493011, AID493024]; type: functional
# [19] = inhibitors of intracellular T. cruzi replication, confirmation, NIH3T3 host cells, beta-gal luminescence (AID 2044); type: functional, cell-based;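 further: intracellular parasites grown in NIH/3T3 mouse fibroblasts as host cells; luminescent beta-galactosidase reporter signal from transgenic T. cruzi replicating inside host cells; inhibitors lower the luminescence signal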
# [20] = target: DNA dC->dU-editing enzyme APOBEC-3G (Homo sapiens, UniProt Q9HC16); type: functional;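 further: Dose-response counterscreen measuring inhibition of APOBEC3G DNA deaminase activity, run while confirming APOBEC3A inhibitors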
# [21] = target: T5, Carboxy-terminal domain RNA polymerase II polypeptide A small phosphatase 1 (Homo sapiens, UniProt Q9GZU7); test: inhibitors of CTDSP1, concentration-response testing, biochemical assay, absorbance-based, actives from ultra-high-throughput screening (AID 540297); type: functional
# T5 sequence (Q9GZU7 whole entry): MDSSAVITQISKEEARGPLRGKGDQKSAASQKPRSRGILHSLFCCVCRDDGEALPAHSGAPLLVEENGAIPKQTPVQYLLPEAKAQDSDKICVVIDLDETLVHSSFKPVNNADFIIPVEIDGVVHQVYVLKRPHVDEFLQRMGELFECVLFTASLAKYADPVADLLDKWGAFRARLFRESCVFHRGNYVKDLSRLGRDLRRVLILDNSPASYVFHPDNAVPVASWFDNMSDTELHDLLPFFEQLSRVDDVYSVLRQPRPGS
# [22] = target: Genome polyprotein (dengue virus type 2, UniProt P29990); test: Dengue-2 NS5 methyltransferase inhibitors, primary screen, biochemical, confirmation dose response (AID 588689); type: functional
# [23] = growth suppression of PTEN-null colon cells, dose response, cell-based, HCT116 PTEN knockout (AID 1047); type: functional;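 further: HCT116 colon tumor cells with PTEN knocked out; cells exposed to compound for 60 hours before readout; potency for loss of cell viability measured by luminescence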
# [24] = growth suppression of beta-catenin-knockout colon cells, dose response, cell-based, HCT116, human colon tumor (AID 1045); type: functional;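 further: HCT116 colon tumor cells with beta catenin knocked out; cells exposed to compound for 60 hours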
# [25] = target: Cytochrome P450 2D6 (Homo sapiens, UniProt P10635);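 further: CYP2D6 member of a cytochrome P450 panel assay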
# Sequence of DNA dC->dU-editing enzyme APOBEC-3G (Q9HC16 whole entry, the tested form may be a part): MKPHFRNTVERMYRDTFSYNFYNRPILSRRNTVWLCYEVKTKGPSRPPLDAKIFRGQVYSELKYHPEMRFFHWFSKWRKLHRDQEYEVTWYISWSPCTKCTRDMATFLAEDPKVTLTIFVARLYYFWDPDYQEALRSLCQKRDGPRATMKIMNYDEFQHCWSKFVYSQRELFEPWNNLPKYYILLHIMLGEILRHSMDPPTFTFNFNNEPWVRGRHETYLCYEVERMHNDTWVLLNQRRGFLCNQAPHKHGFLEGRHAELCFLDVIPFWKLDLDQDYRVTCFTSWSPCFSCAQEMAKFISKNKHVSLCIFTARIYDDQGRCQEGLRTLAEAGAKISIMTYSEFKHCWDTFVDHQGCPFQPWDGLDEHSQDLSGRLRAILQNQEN
# Sequence of DNA dC->dU-editing enzyme APOBEC-3A (P31941 whole entry): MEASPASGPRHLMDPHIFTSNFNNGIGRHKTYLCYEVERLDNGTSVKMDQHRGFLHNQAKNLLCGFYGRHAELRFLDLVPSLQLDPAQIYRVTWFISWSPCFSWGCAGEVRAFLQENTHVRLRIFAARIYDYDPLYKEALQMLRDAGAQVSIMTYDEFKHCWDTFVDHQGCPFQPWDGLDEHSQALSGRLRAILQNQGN
# T2 sequence (P49327 whole entry, the tested form may be a part): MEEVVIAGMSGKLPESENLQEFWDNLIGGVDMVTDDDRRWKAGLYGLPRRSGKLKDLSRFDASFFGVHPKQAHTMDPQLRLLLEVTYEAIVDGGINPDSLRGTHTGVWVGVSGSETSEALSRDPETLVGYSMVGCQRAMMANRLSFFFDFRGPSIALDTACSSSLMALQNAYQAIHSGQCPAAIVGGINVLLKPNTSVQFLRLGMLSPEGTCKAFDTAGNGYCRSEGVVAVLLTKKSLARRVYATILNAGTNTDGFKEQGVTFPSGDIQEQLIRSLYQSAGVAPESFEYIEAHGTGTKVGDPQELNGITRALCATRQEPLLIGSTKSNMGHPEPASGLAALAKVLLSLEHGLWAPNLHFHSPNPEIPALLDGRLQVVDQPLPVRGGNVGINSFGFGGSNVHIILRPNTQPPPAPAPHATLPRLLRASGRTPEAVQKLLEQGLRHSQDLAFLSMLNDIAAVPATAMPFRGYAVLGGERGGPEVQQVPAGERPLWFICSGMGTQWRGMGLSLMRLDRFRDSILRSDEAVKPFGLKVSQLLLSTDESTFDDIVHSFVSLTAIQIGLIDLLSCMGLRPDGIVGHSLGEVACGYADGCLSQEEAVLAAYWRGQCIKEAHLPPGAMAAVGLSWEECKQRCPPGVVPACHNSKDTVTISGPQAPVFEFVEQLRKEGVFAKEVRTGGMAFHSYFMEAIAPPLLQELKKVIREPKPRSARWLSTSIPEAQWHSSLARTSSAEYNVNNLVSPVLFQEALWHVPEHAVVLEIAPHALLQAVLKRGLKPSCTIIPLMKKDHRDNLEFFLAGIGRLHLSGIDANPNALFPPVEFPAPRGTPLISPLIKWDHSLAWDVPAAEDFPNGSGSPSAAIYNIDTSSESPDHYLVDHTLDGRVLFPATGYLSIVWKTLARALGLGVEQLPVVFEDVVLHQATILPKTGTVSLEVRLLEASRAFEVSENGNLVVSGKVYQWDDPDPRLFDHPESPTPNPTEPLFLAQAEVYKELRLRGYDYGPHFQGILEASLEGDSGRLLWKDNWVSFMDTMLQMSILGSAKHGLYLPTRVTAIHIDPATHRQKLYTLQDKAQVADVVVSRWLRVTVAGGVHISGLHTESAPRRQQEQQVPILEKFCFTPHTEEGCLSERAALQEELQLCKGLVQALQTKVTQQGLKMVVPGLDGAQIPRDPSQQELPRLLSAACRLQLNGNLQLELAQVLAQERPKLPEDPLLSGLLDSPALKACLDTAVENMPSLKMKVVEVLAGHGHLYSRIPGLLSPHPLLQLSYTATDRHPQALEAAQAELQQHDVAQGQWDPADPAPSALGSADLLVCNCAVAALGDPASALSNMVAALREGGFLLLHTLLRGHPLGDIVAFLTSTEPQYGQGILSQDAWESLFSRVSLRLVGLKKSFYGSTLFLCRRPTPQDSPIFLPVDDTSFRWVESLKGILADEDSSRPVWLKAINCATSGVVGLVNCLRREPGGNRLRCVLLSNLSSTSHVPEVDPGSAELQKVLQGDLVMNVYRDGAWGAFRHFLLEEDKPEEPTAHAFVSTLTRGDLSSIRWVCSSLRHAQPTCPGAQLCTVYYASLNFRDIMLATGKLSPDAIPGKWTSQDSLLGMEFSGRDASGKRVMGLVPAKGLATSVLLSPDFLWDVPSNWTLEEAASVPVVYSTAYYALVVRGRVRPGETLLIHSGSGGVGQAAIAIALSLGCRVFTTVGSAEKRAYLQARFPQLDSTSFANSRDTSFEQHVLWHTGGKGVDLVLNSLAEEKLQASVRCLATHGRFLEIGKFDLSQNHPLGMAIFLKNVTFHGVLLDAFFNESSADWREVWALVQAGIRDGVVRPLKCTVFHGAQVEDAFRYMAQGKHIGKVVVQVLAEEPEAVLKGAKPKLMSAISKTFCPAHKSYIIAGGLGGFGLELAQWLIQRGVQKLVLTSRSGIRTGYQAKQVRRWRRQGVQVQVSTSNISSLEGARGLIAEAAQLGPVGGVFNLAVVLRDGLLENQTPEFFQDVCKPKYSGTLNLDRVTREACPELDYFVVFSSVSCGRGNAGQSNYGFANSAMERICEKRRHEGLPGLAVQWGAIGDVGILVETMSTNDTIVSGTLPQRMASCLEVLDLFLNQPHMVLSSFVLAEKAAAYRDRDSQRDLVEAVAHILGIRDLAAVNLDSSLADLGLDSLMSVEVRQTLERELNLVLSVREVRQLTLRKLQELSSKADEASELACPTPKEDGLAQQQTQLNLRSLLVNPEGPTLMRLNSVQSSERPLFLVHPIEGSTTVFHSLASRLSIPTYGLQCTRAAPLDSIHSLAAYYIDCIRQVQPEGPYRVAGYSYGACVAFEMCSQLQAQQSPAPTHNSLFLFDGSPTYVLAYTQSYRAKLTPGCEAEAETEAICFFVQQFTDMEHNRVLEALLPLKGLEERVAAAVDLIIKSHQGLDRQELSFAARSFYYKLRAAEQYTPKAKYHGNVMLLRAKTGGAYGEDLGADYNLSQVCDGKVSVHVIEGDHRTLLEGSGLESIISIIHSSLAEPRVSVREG
# Sequence of Cytochrome P450 2C9 (P11712 whole entry): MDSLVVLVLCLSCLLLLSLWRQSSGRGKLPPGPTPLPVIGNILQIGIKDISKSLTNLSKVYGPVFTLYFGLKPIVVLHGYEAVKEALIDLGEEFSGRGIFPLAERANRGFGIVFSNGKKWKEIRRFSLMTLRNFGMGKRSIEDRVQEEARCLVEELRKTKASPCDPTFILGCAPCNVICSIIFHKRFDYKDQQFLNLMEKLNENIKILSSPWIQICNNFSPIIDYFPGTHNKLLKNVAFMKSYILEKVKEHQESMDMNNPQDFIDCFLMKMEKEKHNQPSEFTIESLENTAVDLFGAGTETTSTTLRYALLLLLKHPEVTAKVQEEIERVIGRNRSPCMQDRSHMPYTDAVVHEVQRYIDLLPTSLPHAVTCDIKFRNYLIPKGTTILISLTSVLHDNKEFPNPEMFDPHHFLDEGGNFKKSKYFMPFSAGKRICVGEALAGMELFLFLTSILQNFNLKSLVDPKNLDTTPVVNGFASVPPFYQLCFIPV
# Sequence of Genome polyprotein (P29990 2492-3391 limits assumed): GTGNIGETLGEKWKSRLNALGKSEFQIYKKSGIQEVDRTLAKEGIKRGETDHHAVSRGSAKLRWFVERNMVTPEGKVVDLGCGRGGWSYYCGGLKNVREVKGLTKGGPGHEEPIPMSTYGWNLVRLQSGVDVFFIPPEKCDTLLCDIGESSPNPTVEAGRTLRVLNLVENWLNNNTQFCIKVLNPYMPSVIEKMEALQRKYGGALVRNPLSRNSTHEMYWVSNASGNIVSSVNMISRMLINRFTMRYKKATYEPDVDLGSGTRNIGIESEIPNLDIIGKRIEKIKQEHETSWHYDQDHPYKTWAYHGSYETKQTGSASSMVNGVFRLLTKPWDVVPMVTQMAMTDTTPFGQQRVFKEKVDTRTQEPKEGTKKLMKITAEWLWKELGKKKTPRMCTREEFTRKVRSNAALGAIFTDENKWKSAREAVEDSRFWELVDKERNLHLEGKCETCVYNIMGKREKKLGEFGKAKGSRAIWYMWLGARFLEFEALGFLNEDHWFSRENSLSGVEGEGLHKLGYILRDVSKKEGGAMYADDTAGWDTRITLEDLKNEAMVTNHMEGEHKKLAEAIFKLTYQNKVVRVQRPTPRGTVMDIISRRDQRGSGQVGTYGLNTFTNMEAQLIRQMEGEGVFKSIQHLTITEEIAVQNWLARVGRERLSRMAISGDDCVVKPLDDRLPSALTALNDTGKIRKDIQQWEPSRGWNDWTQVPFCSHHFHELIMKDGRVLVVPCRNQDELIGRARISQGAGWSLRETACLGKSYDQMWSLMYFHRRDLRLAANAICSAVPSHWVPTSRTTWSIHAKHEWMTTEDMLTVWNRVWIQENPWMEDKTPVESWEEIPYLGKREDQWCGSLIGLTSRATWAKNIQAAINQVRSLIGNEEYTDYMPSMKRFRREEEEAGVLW
# Sequence of Cytochrome P450 2C19 (P33261 whole entry, the tested form may be a part): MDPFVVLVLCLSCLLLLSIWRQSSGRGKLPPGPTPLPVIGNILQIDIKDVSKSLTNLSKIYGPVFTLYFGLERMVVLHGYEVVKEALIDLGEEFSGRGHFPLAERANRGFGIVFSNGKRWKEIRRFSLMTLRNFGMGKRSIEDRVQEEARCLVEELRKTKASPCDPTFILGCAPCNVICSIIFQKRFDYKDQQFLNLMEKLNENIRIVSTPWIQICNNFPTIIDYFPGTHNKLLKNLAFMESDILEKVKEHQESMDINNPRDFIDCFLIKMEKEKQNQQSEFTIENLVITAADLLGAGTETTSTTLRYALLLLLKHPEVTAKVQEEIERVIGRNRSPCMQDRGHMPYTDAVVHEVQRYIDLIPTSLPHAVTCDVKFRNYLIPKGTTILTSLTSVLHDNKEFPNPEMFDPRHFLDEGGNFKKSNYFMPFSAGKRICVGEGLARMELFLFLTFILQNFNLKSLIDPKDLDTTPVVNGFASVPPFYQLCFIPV
smiles,measurement,setting,value
Cc1cc(=O)c2ccccc2[nH]1,AC50,[1],25.1 µM (inconclusive)
same,AC50,[2],inconclusive
COc1ccc(N=C2C(=O)Nc3c(C)cccc32)cc1,IC50,[3],> 100 µM (active)
O=[N+]([O-])c1cccc(OCCN2CCC(Cc3ccccc3)CC2)c1,IC50,[4],5.3 µM (active)
same,IC50,[5],4.72 µM (active)
Cn1nc(C(=O)Nc2ccc(S(=O)(=O)N3CCCCC3)cc2)c2ccccc2c1=O,IC50,[6],> 50 µM (not active)
O=C1/C(=C/c2ccccc2Cl)SC(=S)N1CCCC(=O)N(CCO)c1ccccc1,IC50,[4],14.2 µM (active)
same,EC50,[7],0.473 µM (active)
same,IC50,[5],9.91 µM (active)
COc1ccc(NC(C)=O)cc1NC(=O)CN1CCN(C2c3ccccc3-c3ccccc32)CC1,CC50,[8],19.3 µM (active)
same,EC50,[9],14.7 µM (active)
same,EC50,[10],> 120 µM (not active)
same,EC50,[11],> 120 µM (not active)
CCC(C)N1C(=O)/C(=C\c2cc3c4c(c2)CCCN4CCC3)C(=O)NC1=S (configuration not stated),CC50,[8],> 25 µM (active)
O=C(Cc1ccccc1)Nc1ccccc1N1CCOCC1,AC50,[12],6.31 µM (inconclusive)
same,AC50,[13],8.91 µM (inconclusive)
same,AC50,[1],6.31 µM (inconclusive)
same,AC50,[2],inconclusive
CC(C)OCCCNc1[nH]cnc2c3ccccc3nc1-2,AC50,[14],5.7 µM (active)
same,AC50,[15],2.87 µM (active)
Cc1cc(C)nc(N=C(N)Nc2ccc(S(=O)(=O)O)cc2)n1,IC50,[6],< 0.4 µM (not active)
Cc1nc(NC(=O)/C=C/c2ccccc2)sc1C(=O)N(C)C,AC50,[16],43.6 µM (active)
CC[n+]1ccc(/C=C/c2c[nH]c3ccccc23)cc1,EC50,[17],> 60 µM (not active)
same,IC50,[18],5.16 µM (active)
same,EC50,[19],0.839 µM (active)
same,IC50,[20],12.3 µM (active)
same,AC50,[15],5.79 µM (active)
O=C(Nc1ccc(-c2nc3ncccc3o2)cc1)c1ccco1,AC50,[16],30.5 µM (active)
O=C(NCCc1ccccc1)/C(=C\c1cccc([N+](=O)[O-])c1)NC(=O)c1ccco1,IC50,[4],3.04 µM (active)
same,IC50,[5],4.22 µM (active)
O=C(/C=C/c1ccco1)OCC(=O)N1CCCCC1,IC50,[21],5.75 µM (active)
same,IC50,[18],19.5 µM (active)
same,IC50,[20],35.9 µM (active)
COc1ccc(C(=O)N(C)c2c(C)n(C)n(-c3ccccc3)c2=O)cc1OC,IC50,[6],18.1 µM (not active)
CCCC(=O)Nc1ccc(Cl)c(NC(=S)NC(=O)c2cc3ccccc3o2)c1,IC50,[6],> 50 µM (not active)
CN(CC(=O)Nc1ccc(N2CCOCC2)cc1)CC(=O)Nc1ccc(N2CCOCC2)cc1,IC50,[6],0.655 µM (not active)
C#CCOc1c(Br)cc(/C=C2/C(=O)ON=C2C)cc1OCC,IC50,[22],84.7 µM (active)
COc1ccc(CCNCC(O)COc2c(C)cccc2C)cc1OC (configuration not stated),AC50,[16],> 150 µM (inactive)
CCOC(=O)CNC(=O)c1ccccc1,AC50,[16],21 µM (active)
COc1cccc(C2C3=C(O)CC(C)(C)CC3=NC(C)=C2C(=O)Nc2nc3ccccc3s2)c1OC (configuration not stated),IC50,[3],> 100 µM (active)
COc1cc2c3c(c1)-c1c(sn(-c4cc(OC)ccc4OC)c1=S)C(C)(C)N3C(=O)C2=O,EC50,[23],42.3 µM (active)
same,EC50,[24],51 µM (active)
same,IC50,[22],61.9 µM (active)
CC(OC(=O)c1ccc(Cl)c([N+](=O)[O-])c1)C(=O)N1CCN(Cc2ccccc2)CC1 (configuration not stated),IC50,[4],6.15 µM (active)
same,IC50,[5],3.36 µM (active)
CCn1c(C)nc2cc(S(=O)(=O)C(F)(F)C(F)C(F)(F)F)ccc21 (configuration not stated),IC50,[6],3.91 µM (active)
CSc1ccccc1NC(=O)CN(C)CC(=O)c1[nH]c(C)c(C(C)=O)c1C,IC50,[18],6.83 µM (active)
same,IC50,[20],18.9 µM (active)
Cc1cc(Cl)ccc1OCCCC(=O)N1CCN(C)CC1,AC50,[1],15.8 µM (inconclusive)
same,AC50,[25],14.1 µM (inconclusive)
same,AC50,[2],inconclusive
CC(C)(C)C1CCC(OC(=O)C[N+]2(C)CCCC2)CC1 (configuration not stated),IC50,[18],2.96 µM (active)
same,IC50,[20],3.36 µM (active)
O=[N+]([O-])c1ccc([CH+][N-]NC(=S)N[N-][CH+]c2ccc([N+](=O)[O-])cc2)cc1,IC50,[21],4.17 µM (active)
Cn1nc(C(=O)Nc2ccc(-n3cnnn3)cc2)c2ccccc2c1=O,IC50,[21],25.7 µM (active)
COCCOc1ccc(C(F)(F)F)cc1NC(=O)Cc1ccc(S(=O)(=O)N2CCOCC2)s1,IC50,[4],6.76 µM (active)
same,IC50,[5],8.23 µM (active)
O=C1/C(=C/c2ccc(F)cc2)SC(=S)N1NS(=O)(=O)c1ccccc1,IC50,[22],36.7 µM (active)
C=CCOc1ccc(/C=N/O)cc1Cl,IC50,[3],> 100 µM (active)
COc1ccc(/N=C/c2c(O)oc3ccccc3c2=O)cc1,IC50,[3],> 100 µM (active)
CC/N=C1\S/C(=C\c2cn(C(C)=O)nc2-c2ccccc2)C(=O)N1CC,CC50,[8],24.8 µM (active)
CCn1cc(C(=O)O)c(=O)c2cc(F)c(N3CCN(C)CC3)cc21 [PEFLOXACIN MESYLATE],AC50,[16],1.83 µM (active)
